Results taken from patent publication US9409952B2, “Peptide-compound cyclization method” (Chugai Seiyaku Kabushiki Kaisha, priority 2011, dated 2016).
Starred links: 1 amine or outer side, 2 acyl side, 3 side chain; linkers in the order of their positions; H or OH if unused. Positions of bridges follow the written chain, without caps; N, C: chain ends. Non-standard residues stand in square brackets, D forms with d. Residues, ends and D or L forms follow the SMILES beside them. *: point of attachment. Phe(4-(CH2)5CO) = O=C([C@H](Cc1ccc(CCCCCC(=O)[*:3])cc1)N[*:1])[*:2]; Phe(3-(CH2)4CO) = O=C([C@H](Cc1cccc(CCCCC(=O)[*:3])c1)N[*:1])[*:2]; NMeF = CN[C@@H](Cc1ccccc1)C(=O)O; NMeI = CC[C@H](C)[C@H](NC)C(=O)O; NMeL = CN[C@@H](CC(C)C)C(=O)O; NMeV = CN[C@H](C(=O)O)C(C)C; NMeA = CN[C@@H](C)C(=O)O; Piperidide = C1CCN(*)CC1; Sar = CNCC(=O)O

Key:
[1] = Metabolic stability in human hepatic microsome; assay type: in vitro ADME; conditions: microsomes, pH 7.4; human hepatic microsome, NADPH(+); read-out: CL NADPH(+)
[2] = PAMPA (parallel artificial membrane permeability assay); assay type: in vitro ADME; conditions: PAMPA; membrane permeation rate (Pe); 50 mM MOPSO buffer pH 6.5 with 5.0% glycocholic acid, 37° C., 18 hours; read-out: iPAMPA Pe
In short: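 Artificial membrane was 10% (w/v) egg lecithin plus 0.5% (w/v) cholesterol in dodecane on a PVDF filter. A 10 mM DMSO stock was added at 0.5% (v/v) to donor buffer (50 mM MOPSO, pH 6.5, 5.0% glycocholic acid). After 18 h at 37 °C, LC/MS or LC/UV gave donor and acceptor levels for Pe.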

Structure (SMILES)	microsomal CLint at 1 uM [1] [µL/min/mg]	Papp at 18 hours, 50 µM [2] [×10⁻⁶ cm/s]
CC[C@H](C)[C@@H]1NC(=O)[C@H](CC(C)C)N(C)C(=O)[C@H](Cc2ccccc2)N(C)C(=O)[C@H](CC(C)C)NC(=O)CCCCCc2ccc(cc2)C[C@@H](C(=O)N2CCCCC2)NC(=O)[C@H](C)N(C)C(=O)[C@H](C)N(C)C(=O)CN(C)C(=O)[C@H]([C@@H](C)O)NC(=O)[C@H](Cc2ccccc2)N(C)C(=O)[C@H](C(C)C)N(C)C1=O [DP-875] (L[NMeF][NMeL]I[NMeV][NMeF]T[Sar][NMeA][NMeA][Phe(4-(CH2)5CO)]-Piperidide; lactam N-11)	34	19
CC[C@H](C)[C@@H]1NC(=O)CCCCc2cccc(c2)C[C@@H](C(=O)N2CCCCC2)NC(=O)[C@H](C)N(C)C(=O)[C@H](CC(C)C)N(C)C(=O)CN(C)C(=O)[C@H]([C@@H](C)O)NC(=O)[C@H](Cc2ccccc2)N(C)C(=O)[C@H](CC(C)C)N(C)C(=O)[C@H](C)NC(=O)[C@H](C(C)C)N(C)C(=O)[C@H](Cc2ccccc2)N(C)C1=O [DP-876] (I[NMeF][NMeV]A[NMeL][NMeF]T[Sar][NMeL][NMeA][Phe(3-(CH2)4CO)]-Piperidide; lactam N-11)	103	55
CC[C@H](C)[C@H]1C(=O)N[C@@H](CC(C)C)C(=O)N(C)[C@@H](C)C(=O)N(C)[C@@H](Cc2ccccc2)C(=O)NCC(=O)N[C@@H]([C@@H](C)O)C(=O)N[C@@H](Cc2ccccc2)C(=O)N(C)[C@@H](CC(C)C)C(=O)N2CCC[C@H]2C(=O)N[C@H](C(=O)N2CCCCC2)Cc2cccc(c2)CCCCC(=O)N[C@@H](CC(C)C)C(=O)N1C [DP-877] (L[NMeI]L[NMeA][NMeF]GTF[NMeL]P[Phe(3-(CH2)4CO)]-Piperidide; lactam N-11)	43	4.6
CC[C@H](C)[C@H]1C(=O)N[C@H](C(=O)N2CCCCC2)Cc2ccc(cc2)CCCCCC(=O)N[C@@H]([C@@H](C)O)C(=O)N(C)[C@@H](Cc2ccccc2)C(=O)N[C@@H](CC(C)C)C(=O)N2CCC[C@H]2C(=O)N[C@@H](C(C)C)C(=O)N[C@@H](Cc2ccccc2)C(=O)N(C)CC(=O)N[C@@H](CC(C)C)C(=O)N[C@@H](C)C(=O)N1C [DP-878] (T[NMeF]LPVF[Sar]LA[NMeI][Phe(4-(CH2)5CO)]-Piperidide; lactam N-11)	152	23
CC[C@H](C)[C@H]1C(=O)N[C@H](C(=O)N2CCCCC2)Cc2ccc(cc2)CCCCCC(=O)N[C@@H](CC(C)C)C(=O)N2CCC[C@H]2C(=O)N[C@@H](C(C)C)C(=O)N[C@@H](Cc2ccccc2)C(=O)N(C)CC(=O)N[C@@H](CC(C)C)C(=O)N[C@@H](C)C(=O)N1C [DP-879] (LPVF[Sar]LA[NMeI][Phe(4-(CH2)5CO)]-Piperidide; lactam N-9)	239	35
C=C1CCC(=O)N[C@@H](CC(C)C)C(=O)N2CCC[C@H]2C(=O)N(C)[C@@H](C(C)C)C(=O)N[C@@H](Cc2ccccc2)C(=O)N(C)CC(=O)N(C)[C@@H](CC(C)C)C(=O)N[C@@H](C)C(=O)N(C)[C@@H]([C@@H](C)CC)C(=O)N[C@H](C(=O)N2CCCCC2)Cc2ccc1cc2 [DP-880]	490	34
CC(C)C[C@@H]1NC(=O)CCCCCc2ccc(cc2)C[C@@H](C(=O)N2CCCCC2)NC(=O)[C@H](Cc2ccccc2)N(C)C(=O)[C@H](CC(C)C)N(C)C(=O)CN(C)C(=O)[C@H]([C@@H](C)O)NC(=O)[C@H](C)N(C)C(=O)[C@H](C(C)C)N(C)C(=O)[C@H](C)NC(=O)[C@H](CC(C)C)N(C)C(=O)[C@H](Cc2ccccc2)N(C)C1=O [DP-881] (L[NMeF][NMeL]A[NMeV][NMeA]T[Sar][NMeL][NMeF][Phe(4-(CH2)5CO)]-Piperidide; lactam N-11)	83	6.8
C=C1CCC(=O)N[C@@H](CC(C)C)C(=O)N(C)[C@@H]([C@@H](C)CC)C(=O)N(C)[C@@H](CC(C)C)C(=O)NCC(=O)N(C)[C@@H](C)C(=O)N[C@@H](Cc2ccccc2)C(=O)N[C@@H]([C@@H](C)O)C(=O)N(C)[C@@H](CC(C)C)C(=O)N[C@@H](Cc2ccccc2)C(=O)N(C)[C@@H](C(C)C)C(=O)N[C@H](C(=O)N2CCCCC2)Cc2cccc1c2 [DP-882]	32	1.8
